The values that follow come from article PMC3914206.

Type in all cases: binding
Holding throughout (details): Compound Concentration 10 µM

For assay [1], the target named is T1, panel of 442 kinases (Homo sapiens, UniProt P35916).
T1 construct: purchased KINOMEscan
The source says:
(§1) We assessed the selectivity of members of this scaffold using the KINOMEscan methodology across a near comprehensive panel of 442 kinases [[18,27]].

Assay [2] addresses T2, panel of 442 kinases (Homo sapiens, UniProt P22607, G697C).
T2 construct: purchased KINOMEscan
Text: as §1

The target in assay [3] is T3, panel of 442 kinases (Homo sapiens, UniProt P42684).
T3 construct: purchased KINOMEscan
Text: as §1

The target in assay [4] is T4, panel of 442 kinases (Homo sapiens, UniProt P00533, L858R/T790M).
T4 construct: purchased KINOMEscan
Text: as §1

T3 sequence (P42684 whole entry): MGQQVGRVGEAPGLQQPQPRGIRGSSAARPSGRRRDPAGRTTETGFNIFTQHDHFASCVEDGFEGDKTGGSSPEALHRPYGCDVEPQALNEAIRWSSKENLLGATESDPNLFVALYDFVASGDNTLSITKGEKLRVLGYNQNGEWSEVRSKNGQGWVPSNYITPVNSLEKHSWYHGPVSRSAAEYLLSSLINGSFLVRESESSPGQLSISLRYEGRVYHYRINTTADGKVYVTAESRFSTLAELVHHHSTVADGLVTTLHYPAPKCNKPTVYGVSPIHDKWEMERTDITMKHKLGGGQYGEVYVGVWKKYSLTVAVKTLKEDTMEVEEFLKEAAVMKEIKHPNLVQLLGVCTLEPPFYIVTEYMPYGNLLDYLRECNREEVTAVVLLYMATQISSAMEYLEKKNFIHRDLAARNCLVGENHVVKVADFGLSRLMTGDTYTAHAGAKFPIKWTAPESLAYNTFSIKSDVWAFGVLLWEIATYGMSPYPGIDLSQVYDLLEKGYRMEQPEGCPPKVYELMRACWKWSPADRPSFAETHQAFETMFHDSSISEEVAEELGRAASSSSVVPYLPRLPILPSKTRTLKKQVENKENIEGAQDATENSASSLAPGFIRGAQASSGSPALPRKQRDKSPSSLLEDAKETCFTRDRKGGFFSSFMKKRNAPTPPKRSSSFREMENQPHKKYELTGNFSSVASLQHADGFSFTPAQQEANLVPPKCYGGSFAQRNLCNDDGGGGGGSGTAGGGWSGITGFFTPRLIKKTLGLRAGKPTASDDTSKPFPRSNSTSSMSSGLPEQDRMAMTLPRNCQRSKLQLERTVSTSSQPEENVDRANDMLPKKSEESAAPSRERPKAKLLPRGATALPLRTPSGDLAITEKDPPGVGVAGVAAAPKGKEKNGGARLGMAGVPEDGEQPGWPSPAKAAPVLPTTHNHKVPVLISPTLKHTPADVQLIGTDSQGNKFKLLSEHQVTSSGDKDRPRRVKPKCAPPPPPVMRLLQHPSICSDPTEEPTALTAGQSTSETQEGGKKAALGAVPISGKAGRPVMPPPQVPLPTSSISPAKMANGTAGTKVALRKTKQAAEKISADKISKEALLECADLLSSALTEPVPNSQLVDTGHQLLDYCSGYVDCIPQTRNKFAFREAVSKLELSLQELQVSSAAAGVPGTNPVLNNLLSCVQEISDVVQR
T4 sequence (P00533 25-1210 T790M/L858R): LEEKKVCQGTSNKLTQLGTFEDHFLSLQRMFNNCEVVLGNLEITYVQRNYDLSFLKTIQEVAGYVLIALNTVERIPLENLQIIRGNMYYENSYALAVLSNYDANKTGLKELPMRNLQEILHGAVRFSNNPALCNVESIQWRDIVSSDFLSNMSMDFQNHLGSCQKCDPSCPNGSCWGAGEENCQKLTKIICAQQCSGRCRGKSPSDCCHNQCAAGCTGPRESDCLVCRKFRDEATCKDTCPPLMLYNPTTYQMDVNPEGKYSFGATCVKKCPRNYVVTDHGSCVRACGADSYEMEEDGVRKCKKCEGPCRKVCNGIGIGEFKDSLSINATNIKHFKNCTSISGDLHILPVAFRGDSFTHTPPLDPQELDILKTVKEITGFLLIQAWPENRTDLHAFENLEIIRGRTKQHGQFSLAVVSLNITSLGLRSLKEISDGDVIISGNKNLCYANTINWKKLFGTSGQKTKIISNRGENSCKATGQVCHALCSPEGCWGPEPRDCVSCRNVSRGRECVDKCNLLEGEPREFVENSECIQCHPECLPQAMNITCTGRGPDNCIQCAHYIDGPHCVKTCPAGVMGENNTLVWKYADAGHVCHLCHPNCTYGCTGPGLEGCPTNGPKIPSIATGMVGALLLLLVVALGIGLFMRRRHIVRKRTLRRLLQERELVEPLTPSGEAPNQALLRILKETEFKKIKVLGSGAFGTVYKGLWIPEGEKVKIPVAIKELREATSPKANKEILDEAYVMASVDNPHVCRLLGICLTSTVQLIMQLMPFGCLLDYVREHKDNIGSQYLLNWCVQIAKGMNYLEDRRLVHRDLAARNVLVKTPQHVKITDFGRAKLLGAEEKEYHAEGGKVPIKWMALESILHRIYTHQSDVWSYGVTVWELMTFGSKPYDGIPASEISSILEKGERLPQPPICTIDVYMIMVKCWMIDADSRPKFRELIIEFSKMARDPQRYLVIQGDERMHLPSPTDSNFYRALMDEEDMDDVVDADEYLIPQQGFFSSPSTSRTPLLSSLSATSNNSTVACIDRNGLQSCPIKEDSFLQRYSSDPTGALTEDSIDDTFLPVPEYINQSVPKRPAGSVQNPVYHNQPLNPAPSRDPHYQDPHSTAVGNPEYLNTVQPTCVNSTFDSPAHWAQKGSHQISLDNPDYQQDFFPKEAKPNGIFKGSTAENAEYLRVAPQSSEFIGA
T2 sequence (P22607 23-806 G697C): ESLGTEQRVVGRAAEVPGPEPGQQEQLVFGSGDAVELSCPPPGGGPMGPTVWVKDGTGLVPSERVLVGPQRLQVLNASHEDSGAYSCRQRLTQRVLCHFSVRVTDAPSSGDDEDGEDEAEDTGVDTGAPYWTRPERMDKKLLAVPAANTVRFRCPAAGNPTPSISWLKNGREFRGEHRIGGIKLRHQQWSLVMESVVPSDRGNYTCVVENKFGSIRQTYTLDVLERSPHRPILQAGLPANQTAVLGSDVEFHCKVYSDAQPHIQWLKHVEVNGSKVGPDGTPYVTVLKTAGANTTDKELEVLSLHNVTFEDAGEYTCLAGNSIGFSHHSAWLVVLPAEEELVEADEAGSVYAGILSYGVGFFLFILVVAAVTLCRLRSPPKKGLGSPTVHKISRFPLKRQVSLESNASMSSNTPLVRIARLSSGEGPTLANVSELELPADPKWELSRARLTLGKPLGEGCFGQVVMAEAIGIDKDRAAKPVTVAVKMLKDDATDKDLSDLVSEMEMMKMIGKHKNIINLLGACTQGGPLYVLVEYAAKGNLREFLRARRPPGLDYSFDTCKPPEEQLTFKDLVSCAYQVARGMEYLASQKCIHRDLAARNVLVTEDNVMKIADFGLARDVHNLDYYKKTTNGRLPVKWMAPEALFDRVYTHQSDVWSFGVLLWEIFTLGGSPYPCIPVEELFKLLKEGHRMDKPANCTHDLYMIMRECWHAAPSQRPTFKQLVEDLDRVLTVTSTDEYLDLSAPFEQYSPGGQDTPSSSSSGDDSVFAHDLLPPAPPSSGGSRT
T1 sequence (P35916 25-1363): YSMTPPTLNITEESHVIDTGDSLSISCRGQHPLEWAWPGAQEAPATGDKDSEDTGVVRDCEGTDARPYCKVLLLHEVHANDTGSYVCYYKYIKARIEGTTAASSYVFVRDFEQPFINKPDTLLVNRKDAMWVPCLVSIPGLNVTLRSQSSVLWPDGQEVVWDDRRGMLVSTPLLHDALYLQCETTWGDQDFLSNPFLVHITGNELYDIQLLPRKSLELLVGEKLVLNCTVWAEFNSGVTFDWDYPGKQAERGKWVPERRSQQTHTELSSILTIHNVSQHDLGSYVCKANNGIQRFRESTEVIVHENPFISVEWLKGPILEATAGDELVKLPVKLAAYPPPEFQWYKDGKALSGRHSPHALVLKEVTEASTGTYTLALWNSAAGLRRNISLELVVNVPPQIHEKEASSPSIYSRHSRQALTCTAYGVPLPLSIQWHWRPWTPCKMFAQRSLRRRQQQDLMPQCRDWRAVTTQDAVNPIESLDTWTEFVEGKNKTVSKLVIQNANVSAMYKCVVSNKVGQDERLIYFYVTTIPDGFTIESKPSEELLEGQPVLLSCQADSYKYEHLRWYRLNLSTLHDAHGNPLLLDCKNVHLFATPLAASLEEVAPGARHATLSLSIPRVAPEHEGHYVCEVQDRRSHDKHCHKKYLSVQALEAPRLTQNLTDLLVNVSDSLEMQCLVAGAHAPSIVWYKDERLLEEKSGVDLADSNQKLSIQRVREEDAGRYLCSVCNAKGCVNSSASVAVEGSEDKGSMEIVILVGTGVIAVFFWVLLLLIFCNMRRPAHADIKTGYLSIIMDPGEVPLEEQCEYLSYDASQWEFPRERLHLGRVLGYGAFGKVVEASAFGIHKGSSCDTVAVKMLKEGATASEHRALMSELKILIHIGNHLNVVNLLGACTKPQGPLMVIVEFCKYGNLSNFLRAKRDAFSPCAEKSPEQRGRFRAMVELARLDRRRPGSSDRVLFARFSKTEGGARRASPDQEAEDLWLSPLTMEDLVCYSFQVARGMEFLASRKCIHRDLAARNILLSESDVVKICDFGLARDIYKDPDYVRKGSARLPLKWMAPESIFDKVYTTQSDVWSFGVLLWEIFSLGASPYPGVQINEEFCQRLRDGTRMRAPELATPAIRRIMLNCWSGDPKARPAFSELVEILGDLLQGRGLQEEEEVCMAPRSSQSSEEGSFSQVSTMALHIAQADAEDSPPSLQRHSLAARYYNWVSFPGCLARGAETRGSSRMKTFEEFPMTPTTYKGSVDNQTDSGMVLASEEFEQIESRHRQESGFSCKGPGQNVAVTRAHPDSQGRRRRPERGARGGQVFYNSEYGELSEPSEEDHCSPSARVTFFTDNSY

For `CCOc1cc(C(=O)N2CCC(N3CCN(C)CC3)CC2)ccc1Nc1ncc2c(n1)N(C1CCCC1)c1ccccc1C(=O)N2C` [Compound 26], at panel of 442 kinases [1], the “KINOMEscan: FLT4” value was found to be 100. Moreover, on panel of 442 kinases [2], the “KINOMEscan: FGFR3(G697C)” value turned out to be 100. Further, the “KINOMEscan: ABL2” value on panel of 442 kinases [3] is reported as 100. Also, the “KINOMEscan: EGFR(L858R,T790M)” value at panel of 442 kinases [4] came to 78.
In the case of `COc1cc(C(=O)N2CCC(N3CCN(C)CC3)CC2)ccc1Nc1ncc2c(n1)N1CCc3cccc(c31)C(=O)N2C` [Compound 24], at panel of 442 kinases [2], the “KINOMEscan: FGFR3(G697C)” value came to 80.
Consider `COc1cc(C(=O)N2CCC(N3CCN(C)CC3)CC2)ccc1Nc1ncc2c(n1)N(C)c1ccccc1C(=O)N2C` [15 (LRRK2-IN-1)], for which the “KINOMEscan: FLT4” value at panel of 442 kinases [1] was 100. The “KINOMEscan: FGFR3(G697C)” value on panel of 442 kinases [2] was 85. Also, the “KINOMEscan: ABL2” value on panel of 442 kinases [3] was determined as 97. For the same compound, the “KINOMEscan: EGFR(L858R,T790M)” value on panel of 442 kinases [4] was determined as 84.
For `COc1cc(C(=O)N2CCC(N3CCN(C)CC3)CC2)ccc1Nc1ncc2c(n1)N(C1CCCC1)c1ccccc1C(=O)N2C` [Compound 25, 11-cyclopentyl-2-((2-methoxy-4-(4-(4-methylpiperazin-1-yl)piperidine-1-carbonyl)phenyl)amino)-5-methyl-5H-benzo[e]pyrimido[5,4-b][1,4]diazepin-6(11H)-one] the same measures were 100, 100, 100 and 100.
